Assay results published in the NIST ThermoML archive (doi:10.1021/je100423n).

How the values were obtained:
[1] = Molar enthalpy of transition or fusion; details: Crystal; DSC
[2] = for Normal melting temperature: Crystal, DTA
[3] = molar heat capacity at constant pressure; details: 101.33 kPa, Crystal

Cn1cc[n+](CCCS(=O)(=O)[O-])c1 [3-(1-methyl-1H-imidazolium-3-yl)propane-1-sulfonate]
Details	Molar enthalpy of transition or fusion [kcal/mol]	Normal melting temperature [°C]
[1]	6.78	–
[2]	–	217.30

[3]
Details	molar heat capacity at constant pressure [J/K/mol]
79.8 K	86.51
81.82 K	88.12
83.72 K	89.95
85.64 K	89.73
87.56 K	93.2
89.49 K	95.76
91.4 K	97.65
93.32 K	99.15
95.24 K	102.59
97.17 K	103.14
99.12 K	102.97
101.85 K	103.15
104.55 K	104.71
106.45 K	105.28
108.39 K	105.7
110.33 K	111.76
112.29 K	111.65
114.18 K	111.92
116.13 K	115.43
118.1 K	116.28
120.05 K	114.78
121.97 K	115.61
123.88 K	119.92
125.82 K	122.24
127.79 K	123.43
129.74 K	125.12
131.67 K	124.91
133.59 K	127.13
135.53 K	131.14
137.52 K	130.24
139.48 K	129.74
141.43 K	131.92
143.37 K	134.51
145.33 K	134.71
147.34 K	135.23
149.32 K	136.3
151.86 K	137.15
154.34 K	136.69
156.25 K	139.22
158.24 K	141.2
160.2 K	143.21
162.16 K	143.46
164.1 K	142.79
166.03 K	143.55
167.95 K	145.47
169.86 K	147.4
171.84 K	148.97
173.85 K	149.72
175.86 K	149.26
177.86 K	149.24
179.85 K	152.16
181.84 K	150.39
183.8 K	154.14
185.77 K	156.95
187.72 K	158.74
189.66 K	159.79
191.59 K	160.39
193.51 K	162.15
195.43 K	163.86
197.4 K	164.54
199.41 K	165.47
201.87 K	167.03
204.26 K	168.03
206.21 K	169.73
208.23 K	170.72
210.24 K	171.01
212.24 K	172.7
214.24 K	173.59
216.23 K	174.98
218.22 K	175.65
220.2 K	176.48
222.16 K	177.33
224.13 K	178.37
226.09 K	179.05
228.04 K	180.76
229.98 K	181.37
231.89 K	182.01
233.91 K	183.89
235.92 K	184.74
237.85 K	185.76
239.79 K	186.01
242.05 K	187.95
244.34 K	187.83
246.29 K	188.35
248.25 K	190.3
250.19 K	193.13
252.14 K	194.47
254.07 K	195.68
255.99 K	196.3
257.92 K	197.35
259.83 K	198.68
261.74 K	199.57
263.64 K	200.05
265.55 K	201.61
267.43 K	202.34
269.32 K	203.12
271.3 K	205.52
273.27 K	206.92
275.24 K	208.19
277.3 K	209.38
279.36 K	210.92
281.42 K	212.37
283.48 K	214.25
285.52 K	216.3
287.56 K	218.37
289.55 K	220.99
293.53 K	222.83
295.51 K	223.55
297.5 K	224.52
299.48 K	225.32
301.46 K	225.86
303.43 K	227.02
305.4 K	226.03
307.36 K	230.37
309.31 K	235.18
311.27 K	235.45
313.22 K	236.03
315.16 K	234.76
317.1 K	236.03
319.02 K	238.01
320.95 K	239.81
322.87 K	240.52
324.78 K	243.51
326.69 K	246.23
328.59 K	244.95
330.48 K	246.48
332.37 K	249.83
334.35 K	249.15
336.32 K	251.01
338.27 K	250.4
340.28 K	254.4
342.23 K	256.8
344.09 K	255.82
345.86 K	260.16
347.69 K	257.32
349.6 K	262.66
351.56 K	261.97
353.54 K	259.52
355.49 K	263.89
357.41 K	266.15
359.38 K	268.15
361.39 K	270.9
363.37 K	269.56
365.32 K	267.19
367.26 K	270.08
369.16 K	275.79
371.1 K	275.4
373.06 K	275.42
375 K	277.14
376.96 K	279.35
378.97 K	280.38
380.96 K	281.24
383.24 K	283.27
385.55 K	285.76
387.47 K	284.6
389.43 K	285.05
391.54 K	286.7
393.53 K	288.42
395.46 K	290.84

Cn1cc[n+](CCCCS(=O)(=O)[O-])c1 [4-(1-methyl-1H-imidazolium-3-yl)butane-1-sulfonate]
Details	Molar enthalpy of transition or fusion [kcal/mol]	Normal melting temperature [°C]
[1]	6.01	–
[2]	–	235.83

Details	Glass transition temperature [°C]
[2], Glass, Adiabatic calorimetry	30.46

[3]
Details	molar heat capacity at constant pressure [J/K/mol]
80.21 K	109.32
82.3 K	110.19
84.23 K	111.45
86.16 K	114.23
88.12 K	115.88
90.06 K	117.56
92.01 K	118.29
93.95 K	119.31
95.89 K	120.93
97.83 K	122.2
99.77 K	123.74
102.48 K	124.48
105.12 K	126.89
107 K	127.99
108.91 K	129.52
110.85 K	130.01
112.81 K	131.16
114.75 K	132.61
116.67 K	133.57
118.61 K	135.14
120.58 K	137.07
122.53 K	137.67
124.46 K	138.87
126.38 K	139.75
128.32 K	140.75
130.3 K	142.4
132.25 K	144.69
134.2 K	145.28
136.13 K	145.45
138.04 K	146.27
139.98 K	147.32
141.94 K	148.6
143.9 K	150.42
145.84 K	151.09
147.76 K	152.25
149.67 K	153.38
152.19 K	153.72
154.71 K	155.47
156.63 K	157
158.54 K	158.94
160.5 K	159.74
162.51 K	160.66
164.51 K	162.3
166.5 K	163.42
168.48 K	163.25
170.44 K	164.22
172.4 K	166.07
174.34 K	169.35
176.29 K	169.43
178.22 K	169.86
180.14 K	172.46
182.06 K	172.94
183.96 K	173.45
185.91 K	174.79
187.92 K	176.2
189.92 K	177.8
191.9 K	179.25
193.89 K	180.62
195.86 K	181.69
197.82 K	183.02
199.78 K	184.59
202.16 K	186.03
204.55 K	188.92
206.52 K	189.41
208.48 K	190.86
210.43 K	192.56
212.37 K	193.16
214.31 K	194.31
216.23 K	195.92
218.15 K	196.94
220.06 K	198.36
221.95 K	199.16
223.84 K	200.4
225.81 K	201.12
227.76 K	203.49
229.69 K	205.7
231.68 K	206.8
233.67 K	207.23
235.68 K	210
237.67 K	211.8
239.66 K	212.72
242.01 K	212.87
244.29 K	213.82
246.26 K	215.02
248.23 K	216.05
250.19 K	217.52
252.24 K	219.72
254.3 K	221.07
256.34 K	222.28
258.38 K	223.16
260.41 K	224.41
262.43 K	226.87
264.45 K	228.3
266.45 K	230.63
268.46 K	233.04
270.45 K	233.66
272.44 K	235.64
274.42 K	237.81
276.4 K	239.51
278.38 K	241.25
280.34 K	243.42
282.3 K	245.29
284.25 K	246.94
286.19 K	249.67
288.12 K	252.87
290.04 K	253.95
291.95 K	254.73
293.85 K	255.69
295.85 K	257.59
297.85 K	258.49
299.75 K	260.96
301.74 K	261.24
303.72 K	264.66
305.71 K	264.36
307.78 K	264.22
309.84 K	267.13
311.9 K	269.55
313.95 K	271.31
315.99 K	273.57
318.03 K	274.9
320.06 K	276.18
322.09 K	278.14
324.11 K	279.41
326.12 K	281.91
328.13 K	283.31
330.13 K	285.02
332.13 K	286.68
334.12 K	289.14
336.11 K	290.13
338.09 K	291.64
340.07 K	293.16
342.04 K	294.72
344 K	297.82
345.96 K	300.22
347.92 K	301.67
349.87 K	302.61
351.81 K	304.94
353.75 K	306.16
355.69 K	308.54
357.62 K	308.82
359.54 K	310.24
361.47 K	312.31
363.48 K	313.02
365.48 K	315.16
367.47 K	315.19
369.54 K	318.14
371.62 K	320.13
373.68 K	321.14
375.73 K	323.95
377.79 K	324.83
379.83 K	325.26
381.87 K	327.6
383.9 K	332.07
385.94 K	334
387.96 K	335.27
389.98 K	335.42
391.98 K	337.63
393.99 K	338.39
395.97 K	341.92
397.96 K	344.53
